By melting point is commonly meant the temperature of the solid-liquid transition.

`Cc1ccc(N2CN(c3ccccc3)c3[nH]ncc3C2=O)cc1`: the melting point is 260 to 262 °C.
The result for `Cc1cnnc2c1C(=O)CC(c1cc(Cl)sc1Cl)C2` (centres undefined) reads 137 to 138 °C.
The same measure for `CCOCn1c(-c2ccc(Cl)cc2)c(S(=O)(=O)c2ccc(Cl)cc2)c(Br)c1C(F)(F)F`: 107 to 112 °C; for `COC(=O)Cc1c(Br)csc1Br`: 38.5 to 39 °C.
The same measure for `O=C(O)c1ccc(NCCOc2ccc(F)cc2)cc1`: 209 to 210 °C; for `Cc1ccccc1C(=O)N(CN(C)C)c1ccc(C(=O)N2Cc3ccccc3Cc3ccccc32)cc1`: 131 to 133 °C; for `COC(=O)c1cc(C=O)c(C)nc1C1=NC(C)(C(C)C)C(=O)N1` (centres undefined): 145 to 146 °C.
On to `CCN(CC)C(=O)c1ccc(OC)cc1-c1ccccc1`, for which the melting point lay in the range of 64 to 65 °C.
With `O=C(O)[C@H]1C[C@H](CCc2ccccc2)Oc2ccc(F)cc21` (relative stereo), the melting point is 105 to 108 °C.
The same measure for `COC(=O)C(O)c1ccc(C#N)cc1` (centres undefined): 51 to 52 °C; for `COCc1cc2cc(CN3CCOCC3)cc3c(=O)c(C(=O)NCc4ccc(Cl)cc4)cn1c23`: 157 to 159 °C; for `Nc1cccc(NCCO)c1[N+](=O)[O-]`: 129 °C.
On to `Cn1ncc(C(=O)N2CCOCC2)c1C(=O)Nc1ccn2nc(N3CCCC3)nc2c1`, for which the melting point was in the range of 194 to 197 °C.
The same measure for `COc1nc(N(C)C)nc(CCCCCCCCCCO)c1O`: 104 to 105 °C.
Compound `O=C(c1ccccc1)c1cnc2c(n1)CCCC2` came in with a melting point of 61.5 to 63.5 °C.
The same measure for `O=C(O)c1ccc2oc(-c3ccccc3)cc(=O)c2c1`: 281 to 283 °C.
The result for `CCOC(=O)Cc1cc(C)c(C(=O)c2ccc(Cl)c(Cl)c2)n1C` reads 92 to 93.5 °C; that for `CS(=O)(=O)Nc1cc2c(cc1Oc1ccccc1)C(=O)C(Br)(Br)CO2`, 169 to 170 °C; that for `CC(=O)N(N1C(=O)C(NC(=O)Nc2cccc(C)c2)CC(c2ccccc2)CC1c1ccccc1)C(C)(C)C` (single isomer, unassigned; (-)), 140 to 150 °C.
The result for `CC(=O)NCC1CN(c2ccc(N3CCC(O)(C(C#N)C4CC4)CC3)c(F)c2)C(=O)O1` (centres undefined) reads 170 to 172 °C; that for `COC(=O)c1csc(-c2cc3ccccc3[nH]2)n1`, 69 to 71 °C; that for `CCCCNc1nc(N)nc2c1ncn2C1CC(N=[N+]=[N-])C(CO)O1` (centres undefined), 44 to 47 °C.
For the compound `CCCCOCCCNC(=O)C(C)(C(C)C)C(C)C`, the melting point was 40 °C.
Take `O=C1/C(=C(\NC2CC2)c2ccccc2)Sc2ccccc21`: the melting point is 131 to 132 °C.
The result for `CCN(CCCCc1coc2c(OC)cccc12)C1COc2c(F)ccc(C(N)=O)c2C1` (centres undefined) reads 112 to 118 °C.
Take `O=C(O)c1cccc(SCc2c(O[C@H](Cn3ccnc3)c3ccccc3)ccc3c2CCCC3=O)c1`: the melting point was determined as 225 °C.
The result for `CC(C)(C)OC(=O)N1CCC(n2c(=O)[nH]c3ccccc32)CC1` reads 161 to 163 °C; that for `O=C1COc2cc(NC(=O)C(=O)O)ccc2N1`, 232 to 236 °C.
The same measure for `Cc1nc(-c2ccccc2)ncc1C(=O)c1ccccc1`: 68 to 72 °C; for `CS(=O)(=O)c1ccc(-c2n[nH]c(=O)cc2-c2ccc(Cl)cc2)cc1`: 254 to 255 °C.
`CC(C)(C)NS(=O)(=O)c1cccc2c1C(O)CCC2` (centres undefined) displayed a melting point of 100 to 111 °C.
The result for `COC(=O)Cc1ccc(-c2cc(O)c3ccccc3c2O)n1C` reads 200 to 201 °C; that for `COc1cc(C(=O)N2CCC(CCN3CCC(C(=O)c4nc5ccccc5n4Cc4ccc(F)cc4)CC3)(c3ccc(F)cc3F)C2)cc(OC)c1OC` (centres undefined), 58 to 60 °C; that for `COc1cc2c(cc1OC)C(N(CC(=O)O)C(=O)C(CSC(C)=O)CSC(C)=O)CC2` (centres undefined), 140 to 143 °C.
The same measure for `CCCN(c1cccc(-c2ccnc3c([N+](=O)[O-])cnn23)c1)S(C)(=O)=O`: 165 to 167 °C.
`COC1C(OC(=O)c2ccc([N+](=O)[O-])cc2)C=C(C)C(=O)CC1(C)C` (centres undefined) showed a melting point of 136 to 138 °C.
Consider `COC(=O)C=Cc1ccc(CO)cc1`, for which the melting point lay in the range of 86 to 87 °C.
The result for `C#CC12CC3CC(C1)CC(C14CC5CC(CC(C#C)(C5)C1)C4)(C3)C2` reads 208 to 210 °C.
`Cc1ccc(C(=O)NC(NC(=S)Nc2cccnc2)C(F)(F)F)cc1` (centres undefined) came in with a melting point of 185 to 186 °C.
The compound `CCc1cccc(C)c1CNc1cc(C(=O)N(C)C)nc2c(C)c(C)[nH]c12` registered a melting point of 260 to 262 °C.
The compound `CCC(=O)N(C)c1cccc(-c2ccc3nncn3n2)c1` displayed a melting point of 146 to 150 °C.
The result for `CC(=O)c1ccsc1S(N)(=O)=O` reads 193 to 196 °C.
The result for `O=C(Nc1cccc(C(F)(F)F)c1)C1C(=O)C2CCC(C2)C1=O` (centres undefined) reads 68 to 69 °C; that for `O=C(O)c1[nH]c(-c2ccoc2)cc1-c1ccc(O)cc1`, 154 to 156 °C; that for `COC(=O)N1c2cc(OC)c(OC)cc2C(=O)CC1C` (centres undefined), 156 to 158 °C.
The result for `Oc1ccc(Nc2nc(Cl)nc(Cl)n2)cc1Cl` reads 180 °C; that for `Nc1ccc(C(c2ccc(N)c(N)c2)(C(F)(F)F)C(F)(F)F)cc1N`, 218 to 220 °C.
In turn, `COC(=O)C(Cl)Cc1ccc(O)cc1` (centres undefined) yielded a melting point of 57 to 59 °C.
The same measure for `N#Cc1ncn2c1N(C(=O)CN1CCN(Cc3ccccc3)CC1)CC=C2c1cccc(C(F)(F)F)c1`: 167 to 169 °C; for `Cc1ccc2c(c1C)OC(C)(C)C2=O`: 79 to 81 °C.
As to `COC(=O)c1cc2cc(COc3cccnc3)ccc2s1`, the melting point was in the range of 106 to 107 °C.
The result for `C#Cc1ccc(=O)n(C(C)C)n1` reads 103 to 104 °C.
The result for `N#CC(C#N)=CN(N=C(C#N)C#N)c1ccc(Cl)c(Cl)c1` reads 162 to 164 °C.
Consider `CNC(CNC(=O)c1nc(Cl)c(N)nc1N)CC(=O)NCCN` (centres undefined), for which the melting point was 106 to 109 °C.
The same measure for `COc1ccccc1N(CCN1CCC(C(=O)c2ccc(F)cc2)CC1)C(=O)c1ccc([N+](=O)[O-])cc1`: 166 to 168 °C; for `Cc1cc(C)c(C=CC#N)c(Br)c1`: 95 to 96 °C; for `COC(=O)C1=C(C)NC(C)=C(C(=O)OCCN2CCN(c3ccccc3OC)CC2)C1c1cccc([N+](=O)[O-])c1` (centres undefined): 58 °C.
`Oc1ccc2c(c1O)C(=Cc1ccnc3ccccc13)c1ccccc1-2` came in with a melting point of 315 °C.
Consider `N#CC1=C(c2ccccc2)Nc2n[nH]cc2C1c1cccc2nsnc12` (centres undefined), for which the melting point is 258 °C.
`COc1ccccc1-n1c(CSc2ncnc3[nH]cnc23)nc2cccc(Cl)c2c1=O` showed a melting point of 237 °C.
On to `O=C(Nc1ccc(F)cc1)c1ccccc1-c1cccc(F)c1`, for which the melting point fell in the range of 147 to 148 °C.
The same measure for `COC(=O)NC1=NC(c2cccc3ccccc23)CN1` (centres undefined): 208 to 209 °C; for `CC(=O)NCCN1CCN(c2cccccc2=O)CC1`: 117 to 118 °C; for `CC(C)Oc1ccc2nc3ccc(C#N)cn3c(=O)c2c1`: 234 to 236 °C.

(Values after a melting point compilation (Tetko et al.; mined from patent text by program, amines drawn as free bases though some values may be those of a salt).)
